“Also recorded” adds a separate entry of the source.
Columns and labels:
Format in all cases: cell-based, human
[1] = test system: hPSC-derived cortical neurons from treated NPC; assay: Western blot for maturation markers after transient inhibition of chromatin regulators in NPC; conditions: NPC treated d12 to d20, neurons analysed d35, versus DMSO
[2] = test system: hPSC-derived cortical neurons from treated NPC; assay: Ca2+ imaging (GCaMP6m) after transient inhibition of chromatin regulators in NPC; conditions: NPC treated d12 to d20, imaging d40, versus DMSO
[3] = test system: hPSC-derived cortical neurons; assay: High-content maturity assay / chemical screen in hPSC-derived cortical neurons; conditions: for dose-response validation, mean of 4 maturity parameters normalized to DMSO (mean maturation score): 30 nM-10,000 nM, nuclear size and roundness, neurite length, KCl-induced FOS/EGR1+ cells; for number of cells (cell viability / neuron survival): with respect to DMSO, treatment days 7-14, day 21
Text: The phenotypic complexity of neurons makes single-readout assays unsuitable to fully capture maturation stages. Therefore, a multi-phenotype approach (via high-content screening, HCS) (Boutros M., Heigwer F. & Laufer C. Cell vol. 163 1314-1325 (2015)) was used to design an assay that simultaneously monitors distinct features of neuronal maturation (FIG. 1A). Dendritic outgrowth is a widely used parameter of neuron maturity (Wu, G. Y. et al., J. Neurosci. 19, 4472-4483 (1999)) and can be monitored through automated tracing of microtubule-associated protein 2 (MAP2) immunostaining (FIGS. 1B and 1C). Changes in nuclear size and morphology are also characteristic of neuron development and maturation (Ito K. & Takizawa T., Frontiers in Genetics vol. 9 (2018)) and can be tracked via DAPI counterstaining (FIGS. 1B and 1C). As an indirect measurement of neuronal function and excitability, the nuclear expression of immediate early gene (IEG) products FOS and EGR1 were quantified following 2 hours of potassium chloride (KCl) stimulation (FIGS. 1B and 1D). IEGs are defined by their rapid induction in the absence of de-novo protein synthesis by stimuli that include sustained membrane depolarization in neurons (Sheng M. & Greenberg M. E., Neuron vol. 4 477-485 (1990)). In contrast to more traditional measures of neuronal activity such as calcium imaging and electrophysiology, IEG immunoreactivity is readily scalable as a readout for thousands of treatment conditions. However, IEGs can be triggered by stimuli other than neuronal activity including growth factor signaling (Greenberg M. E. & Ziff E. B., Nature 311, 433-438 (1984)) and cellular stress responses (Murai J. et al., Cell Rep. 30, 4137-4151.e6 (2020)). Therefore, to avoid direct activation of IEGs, transient compound treatment (day 7-14) was used and all measurements were performed after rinsing of compounds followed by culture in compound-free medium for an additional 7 days (day 14-21) prior to analysis (FIG. 1A). Furthermore, IEGs under both basal and KCl-stimulated conditions were recorded to specifically determine the depolarization-induced signal by subtracting baseline from KCl-induced responses. Measuring maturation readouts only after compound withdrawal enabled the identification of compounds that trigger a long-lasting “memory” of a maturation stimulus even after compound removal.
The present maturity assay was then applied to screen a library of 2688 bioactive compounds in hPSC-derived cortical neurons (FIG. 6A). The library was applied at 5 μM and standard scores (z-scores) of duplicate screen runs were averaged for analysis. Viability was determined by quantifying intact nuclei, and 325 toxic compounds with a z-score below −2 were excluded from further analysis (FIG. 6B). For HCS hit selection, principal component analysis (PCA) was applied to 6 maturity z-scores to identify patterns of distribution among compounds, avoiding single threshold hit discrimination (Singh S. et al., Journal of Biomolecular Screening vol. 19 640-650 (2014)) (FIG. 1E, left panel). The 6 parameters were: nuclear size and roundness, total neurite length and branching (number of segments per cell), and fractions of KCl-induced FOS+ and EGR1+ cells. Three phenotypic clusters of compounds were identified by PCA: maturation enhancers (hits); maturation suppressors, consisting mostly of inhibitors of the PI3K/AKT/mTOR axis; and inducers of non-neuronal contaminant proliferation, which were highly enriched in TGF-β signaling inhibitors as well as inhibitors of rho-associated protein kinase (ROCK) and other signaling pathways (FIG. 1E, right panel).
A bioactive compound library containing 2688 compounds was used for screening at a concentration of 5 μM (Selleck Bioactive Library, Selleck Chemicals). 192 DMSO wells contained within the library were used as negative controls. […]

| Structure (SMILES) | expression of the maturation markers Nefh and Stx1a [1] | amplitude of individual Ca2+ spikes [2] | frequency of individual Ca2+ spikes [2] | synchronicity of the neuronal network (synchronous firing rate) [2] | dose-response validation, mean of 4 maturity parameters normalized to DMSO (mean maturation score) [3] | number of cells (cell viability / neuron survival) [3] |
| --- | --- | --- | --- | --- | --- | --- |
| CCCc1cc(C)[nH]c(=O)c1CNC(=O)c1cc(-c2ccnc(N3CCN(C)CC3)c2)cc2c1cnn2C(C)C [GSK343, N-[(6-methyl-2-oxo-4-propyl-1H-pyridin-3-yl)methyl]-6-[2-(4-methylpiperazin-1-yl)pyridin-4-yl]-1-propan-2-ylindazole-4-carboxamide] | robust increased expression | marked and highly significant increase | marked and highly significant increase | marked and highly significant increase |  |  |
| COc1cc2c(NC3CCN(C(C)C)CC3)nc(C3CCCCC3)nc2cc1OCCCN1CCCC1 [UNC0638, 2-cyclohexyl-6-methoxy-N-(1-propan-2-ylpiperidin-4-yl)-7-(3-pyrrolidin-1-ylpropoxy)quinazolin-4-amine] | robust increased expression |  |  | significant changes |  |  |
| COC(=O)C1=C(C)NC(C)=C([N+](=O)[O-])C1c1ccccc1C(F)(F)F (stereo not drawn) [Bay K 8644, methyl 2,6-dimethyl-5-nitro-4-[2-(trifluoromethyl)phenyl]-1,4-dihydropyridine-3-carboxylate] |  |  |  |  | confirmed hits | did not significantly affect neuron survival |
| CC(C)N(CCCNC(=O)Nc1ccc(C(C)(C)C)cc1)C[C@H]1O[C@@H](n2ccc3c(N)ncnc32)[C@H](O)[C@@H]1O [EPZ004777, 1-[3-[[(2R,3S,4R,5R)-5-(4-aminopyrrolo[2,3-d]pyrimidin-7-yl)-3,4-dihydroxyoxolan-2-yl]methyl-propan-2-ylamino]propyl]-3-(4-tert-butylphenyl)urea] | robust increased expression |  |  | modest functional enhancement with an increased synchronous firing rate |  |  |
| CC(C)N(C[C@H]1O[C@@H](n2cnc3c(N)ncnc32)[C@H](O)[C@@H]1O)[C@H]1C[C@@H](CCc2nc3cc(C(C)(C)C)ccc3[nH]2)C1 [EPZ-5676, (2R,3R,4S,5R)-2-(6-aminopurin-9-yl)-5-[[[3-[2-(6-tert-butyl-1H-benzimidazol-2-yl)ethyl]cyclobutyl]-propan-2-ylamino]methyl]oxolane-3,4-dioland] |  |  |  |  | confirmed hits | did not significantly affect neuron survival |
| N[C@H]1C[C@@H]1c1ccc(-c2cccc(O)c2)cc1 [OG-L002] |  |  |  |  | confirmed hits |  |
| O=C(O)c1ccc(CN2CCC(CN[C@@H]3C[C@H]3c3ccccc3)CC2)cc1 [GSK2879552, 4-[[4-[[[(1R,2S)-2-phenylcyclopropyl]amino]methyl]piperidin-1-yl]methyl]benzoic acid] |  |  |  |  | stronger combined effect than OG-L002; also recorded: confirmed hits | did not significantly affect neuron survival |
